From PubChem BioAssay AID1963828 (Molecular Pharmacology Branch, DTP, NCI, 2024)

System: 991263-137-R1-J2-PDC complex spheroid viability
Experiment: Anticancer human tumor 991263-137-R1-J2-PDC patient-derived colon adenocarcinoma cell line growth inhibition [POLQ]
Conditions: for IC50: curve of first compound; for viability, T/C: stronger effect = lower value
How it was run: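 Three-cell-type spheroids modelling solid tumor plus stroma served as the readout system; POL inhibitors were tested individually and in combination, concentration ranges set by clinical Cmax where known.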

[1] = second compound 0.0316 µM, first compound 0.0316 µM
[2] = second compound 0.0316 µM, first compound 0.1 µM
[3] = second compound 0.0316 µM, first compound 0.316 µM
[4] = second compound 0.0316 µM, first compound 1 µM
[5] = second compound 0.0316 µM, first compound 3.16 µM
[6] = second compound 0.0316 µM, first compound 10 µM
[7] = second compound 0.1 µM, first compound 0.0316 µM
[8] = second compound 0.1 µM, first compound 0.1 µM
[9] = second compound 0.1 µM, first compound 0.316 µM
[10] = second compound 0.1 µM, first compound 1 µM
[11] = second compound 0.1 µM, first compound 3.16 µM
[12] = second compound 0.1 µM, first compound 10 µM
[13] = second compound 0.316 µM, first compound 0.0316 µM
[14] = second compound 0.316 µM, first compound 0.1 µM
[15] = second compound 0.316 µM, first compound 0.316 µM
[16] = second compound 0.316 µM, first compound 1 µM
[17] = second compound 0.316 µM, first compound 3.16 µM
[18] = second compound 0.316 µM, first compound 10 µM
[19] = second compound 1 µM, first compound 0.0316 µM
[20] = second compound 1 µM, first compound 0.1 µM
[21] = second compound 1 µM, first compound 0.316 µM
[22] = second compound 1 µM, first compound 1 µM
[23] = second compound 1 µM, first compound 3.16 µM
[24] = second compound 1 µM, first compound 10 µM
[25] = second compound 3.16 µM, first compound 0.0316 µM
[26] = second compound 3.16 µM, first compound 0.1 µM
[27] = second compound 3.16 µM, first compound 0.316 µM
[28] = second compound 3.16 µM, first compound 1 µM
[29] = second compound 3.16 µM, first compound 3.16 µM
[30] = second compound 3.16 µM, first compound 10 µM
[31] = second compound 10 µM, first compound 0.0316 µM
[32] = second compound 10 µM, first compound 0.1 µM
[33] = second compound 10 µM, first compound 0.316 µM
[34] = second compound 10 µM, first compound 1 µM
[35] = second compound 10 µM, first compound 3.16 µM
[36] = second compound 10 µM, first compound 10 µM
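Further: spheroids exposed to compounds for 7 days before readout.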
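Wherever viability, T/C is given: 100% = DMSO vehicle control viability.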

`CNCc1ccc(-c2[nH]c3cc(F)cc4c3c2CCNC4=O)cc1` + Cc1cccc(N(C)C(=O)C2C(O)CCN2c2nc(C)cc(C(F)(F)F)c2C#N)c1 was tested, and the IC50 (second compound 0.0316 µM) was > 10 µM, the IC50 (second compound 0.1 µM) was > 10 µM and the IC50 (second compound 0.316 µM) was > 10 µM. For the same molecule, the IC50 (second compound 1 µM) was > 10 µM, the IC50 (second compound 3.16 µM) was > 10 µM and the IC50 (second compound 10 µM) was > 10 µM. It also gave a viability, T/C [1] of 107%, a viability, T/C [2] of 103% and a viability, T/C [3] of 118%. The viability, T/C [4] was 93.4%, the viability, T/C [5] was 86.2% and the viability, T/C [6] was 106%. The viability, T/C [7] was 110%, the viability, T/C [8] was 107% and the viability, T/C [9] was 101%. The viability, T/C [10] was 107%, the viability, T/C [11] was 105% and the viability, T/C [12] was 99.4%. The viability, T/C [13] was 108%, the viability, T/C [14] was 120% and the viability, T/C [15] was 77.2%. For the same molecule, the viability, T/C [16] was 112%, the viability, T/C [17] was 110% and the viability, T/C [18] was 126%. It also gave a viability, T/C [19] of 115%, a viability, T/C [20] of 102% and a viability, T/C [21] of 102%. It also gave a viability, T/C [22] of 113%, a viability, T/C [23] of 127% and a viability, T/C [24] of 94.3%. It also gave a viability, T/C [25] of 112%, a viability, T/C [26] of 101% and a viability, T/C [27] of 107%. It also gave a viability, T/C [28] of 108%, a viability, T/C [29] of 110% and a viability, T/C [30] of 119%. It also gave a viability, T/C [31] of 107%, a viability, T/C [32] of 114% and a viability, T/C [33] of 107%. For the same molecule, the viability, T/C [34] was 114%, the viability, T/C [35] was 123% and the viability, T/C [36] was 94.2%.
For `C=CCn1c(=O)c2cnc(Nc3ccc(N4CCN(C)CC4)cc3)nc2n1-c1cccc(C(C)(C)O)n1` + COC1C(OC(N)=O)C(O)C(Oc2ccc3c(O)c(NC(=O)c4ccc(O)c(CC=C(C)C)c4)c(=O)oc3c2C)OC1(C)C, the IC50 (second compound 0.0316 µM) was > 1 µM, the IC50 (second compound 0.1 µM) was > 1 µM and the IC50 (second compound 0.316 µM) was > 1 µM. For the same molecule, the IC50 (second compound 1 µM) was > 1 µM, the IC50 (second compound 3.16 µM) was > 1 µM and the IC50 (second compound 10 µM) was > 1 µM. For the same molecule, the viability, T/C (second compound 0.0316 µM, first compound 0.00316 µM) was 116%, the viability, T/C (second compound 0.0316 µM, first compound 0.01 µM) was 115% and the viability, T/C [1] was 105%. The viability, T/C [2] was 107%, the viability, T/C [3] was 95.6% and the viability, T/C [4] was 101%. It also gave a viability, T/C (second compound 0.1 µM, first compound 0.00316 µM) of 94.2%, a viability, T/C (second compound 0.1 µM, first compound 0.01 µM) of 109% and a viability, T/C [7] of 91.1%. For the same molecule, the viability, T/C [8] was 97%, the viability, T/C [9] was 108% and the viability, T/C [10] was 77.4%. It also gave a viability, T/C (second compound 0.316 µM, first compound 0.00316 µM) of 102%, a viability, T/C (second compound 0.316 µM, first compound 0.01 µM) of 110% and a viability, T/C [13] of 92.6%. For the same molecule, the viability, T/C [14] was 97.8%, the viability, T/C [15] was 100% and the viability, T/C [16] was 108%. The viability, T/C (second compound 1 µM, first compound 0.00316 µM) was 85.1%, the viability, T/C (second compound 1 µM, first compound 0.01 µM) was 100% and the viability, T/C [19] was 96.8%. For the same molecule, the viability, T/C [20] was 98.7%, the viability, T/C [21] was 104% and the viability, T/C [22] was 98%. For the same molecule, the viability, T/C (second compound 3.16 µM, first compound 0.00316 µM) was 111%, the viability, T/C (second compound 3.16 µM, first compound 0.01 µM) was 81.2% and the viability, T/C [25] was 119%. The viability, T/C [26] was 105%, the viability, T/C [27] was 115% and the viability, T/C [28] was 93.4%. The viability, T/C (second compound 10 µM, first compound 0.00316 µM) was 98.1%, the viability, T/C (second compound 10 µM, first compound 0.01 µM) was 107% and the viability, T/C [31] was 102%. It also gave a viability, T/C [32] of 92.5%, a viability, T/C [33] of 110% and a viability, T/C [34] of 105%.
With `CC(C)n1c(=O)n(C)c2cnc3cc(F)c(-c4ccc(OCCCN5CCCCC5)nc4)cc3c21` + Nc1ccc(C#CCN(C(=O)Cc2ncc(C(F)(F)F)cc2C(F)(F)F)c2ccc(F)cc2)nn1 the IC50 (second compound 0.0316 µM) was > 10 µM, the IC50 (second compound 0.1 µM) was > 10 µM and the IC50 (second compound 0.316 µM) was > 10 µM. The IC50 (second compound 1 µM) was > 10 µM, the IC50 (second compound 3.16 µM) was > 10 µM and the IC50 (second compound 10 µM) was > 10 µM. For the same molecule, the viability, T/C [1] was 96.6%, the viability, T/C [2] was 109% and the viability, T/C [3] was 111%. For the same molecule, the viability, T/C [4] was 121%, the viability, T/C [5] was 98.8% and the viability, T/C [6] was 111%. The viability, T/C [7] was 103%, the viability, T/C [8] was 99.8% and the viability, T/C [9] was 102%. It also gave a viability, T/C [10] of 121%, a viability, T/C [11] of 101% and a viability, T/C [12] of 85.8%. For the same molecule, the viability, T/C [13] was 104%, the viability, T/C [14] was 99.4% and the viability, T/C [15] was 101%. The viability, T/C [16] was 110%, the viability, T/C [17] was 103% and the viability, T/C [18] was 111%. It also gave a viability, T/C [19] of 105%, a viability, T/C [20] of 100% and a viability, T/C [21] of 105%. The viability, T/C [22] was 104%, the viability, T/C [23] was 95.5% and the viability, T/C [24] was 90.1%. It also gave a viability, T/C [25] of 90.7%, a viability, T/C [26] of 97.7% and a viability, T/C [27] of 106%. For the same molecule, the viability, T/C [28] was 118%, the viability, T/C [29] was 111% and the viability, T/C [30] was 105%. The viability, T/C [31] was 99%, the viability, T/C [32] was 96.2% and the viability, T/C [33] was 112%. It also gave a viability, T/C [34] of 94.5%, a viability, T/C [35] of 93.5% and a viability, T/C [36] of 101%.
